Source: patent publication US8609135B2, “Anthracycline derivatives” (Nuclisome AB, priority 2004, dated 2013)
Like-named read-outs stand apart in the source and are kept apart here.

Tests used:
[1] = system: human tumour A431 cells (squamous carcinoma); assay: Binding of 125I-Compound 1 to permealised A431 cells (gamma counter, fluorescence microscopy); assay type: cell-based
Experimental: Human cultured tumour cells […] were grown as monolayer cultures using Ham's F-10 medium (Biochrom AG, Berlin, Germany) containing 10% fetal calf serum, glutamine (2 mM), streptomycin (100 μg/ml), and penicillin (100 IU/ml) at a temperature of 37° C. in a humidified 5% CO2 incubator.
Cultured human tumour A431 cells (squamous carcinoma) were grown on glass slides, cooled to a temperature of 4° C., and washed with phosphate buffer. Cells were inactivated in methanol for 15 minutes at a temperature of −20° C. and then quickly washed at a temperature of 4° C. with phosphate buffer. Cells were thereafter permealised by acetone treatment for 10 seconds at a temperature of 4° C. After drying cells were incubated with ^125I-Compound 1 at room temperature for one hour, washed, and analyzed for radioactivity using a gamma counter (1480 Wallac Wizard, Perkin Elmer, Wellesley, Mass., USA). In addition, cells were inspected by fluorescence microscopy.

[2] = Drug retention in liposomes; assay type: physicochemical; settings: incubated in medium at 37° C. for 24 h
Experimental: Liposomes were composed of 1,2-distearoyl-sn-glycero-3-phosphatidyl-choline (DSPC), cholesterol, 1,2-distearoyl-sn-glycero-3-phosphatidyl-ethanolamine-N-[methoxy (poly-ethyleneglycol)-2000 (DSPE-PEG2000) at a molar ratio of 57:40:3. Liposomes were prepared by the lipid film hydration method. Briefly, cholesterol and lipids were dissolved in chloroform. The solvent was evaporated under a gentle stream of nitrogen gas and the lipid film was dried under vacuum overnight. The lipid film was hydrated with 300 mM citrate buffer (pH 4) for 1 h with intermediate vortex mixing at a lipid concentration of 20 mM at a temperature of 60° C. Liposomes were repetitively frozen in liquid nitrogen and thawed at a temperature of 60° C. five times before extrusion. Liposomes were extruded ten times through two stacked polycarbonate membranes filters (Whatman Inc. Nucleopore, Newton, Mass.) with a pore size of 100 nm at a room temperature using an Avanti Mini-extruder (Avanti Polar Lipids Inc., Alabaster, Ala.). […]
Liposomes were incubated at temperatures of 37° C. or 60° C. […] The fluorescence intensity of samples was determined at an excitation wavelength of 468 nm and an emission wavelength of 589 nm. The percentage of encapsulated drug after incubation was determined relative to the amount of encapsulated drug before incubation.

calf thymus DNA (CT DNA) [3] = assay: Fluorescence titration, binding to calf thymus DNA; settings: room temperature, BPES buffer pH 7, n=3
Experimental: Type 1 calf thymus DNA sodium salt (Sigma-Aldrich Co., St Louis, M.O., USA) was hydrated in BPES buffer (6 mM Na2HPO4, 2 mM NaH2PO4, 1 mM EDTA, 185 mM NaCl, pH 7) at a concentration of approximately 2 mg/ml and sonicated at approximately 8 μA in a MSE Soniprep 150 ultrasonic disintegrator (Integrated Services TCP Inc., Palisades Park, N.J., USA) for 30 min in a water bath on ice. The sample was then dialyzed for 48 h against BPES using Slide-A-Lyzer® dialysis cassettes (10,000 MWCO) (Pierce, Rockford, Ill., USA). The final DNA concentration was determined spectrophotometrically on a HP8453 spectrophotometer (Hewlett-Packard Company Houston Tex., USA) at a wavelength of 260 nm using an extinction coefficient of 12,824 M (bp)^−1 cm^−1.
Fluorescence titration experiments were performed on a SPEX 1680 Fluorolog spectrofluorometer (SPEX Industries Inc., Edison, N.J., USA) at room temperature with λex=480 nm (slid width 2.5 mm) and λem=592 nm (slid width 2.5 mm). The initial free drug concentration was 1 μM. […] The concentration of bound drug was calculated by the difference between CT and Cf. Binding constants (Ki) and exclusion parameters (n) were calculated by plotting r/Cf versus r (Scatchard plot), where r is the number of moles of bound drug per mol DNA base pairs. Theoretical curves for the neighbor exclusion model were calculated by using the algorithm: r/Cf=Ki(1−nr)[(1−nr)/[1−(n−1)r]]^n−1 (J. Mol. Biol. 86, 469-489, 1974)
where Ki (M^−1) is the intrinsic binding constant and n (base pairs) is the exclusion parameter. The parameters Ki and n were varied to generate theoretical curves that closest fitted the experimental data.

SKBR-3 cells = assay: Growth curves of SKBR-3 cells (toxicity); assay type: cell-based, human; settings: SKBR-3 cell monolayers, 0.5 ng/ml, 2.5 h incubation
Experimental: Growth curves^125I-Compound 1, Compound 1, doxorubicin, or daunorubicin were dissolved in culture media to a concentration of 0.5 ng/ml. The specific activity of ^125I-Compound 1 was 100 kBq/ng. SKBR-3 cells were incubated with drug in 60 mm plastic Petri dishes as triplicates, for 2.5 h. Control-cells were incubated with ordinary culture medium. After incubation, the medium was removed from all dishes and cells were washed six times with serum-free medium. Cells were detached from dishes by adding 0.5 ml of trypsin/EDTA for 10 min at a temperature of 37° C. After re-suspension in 1 ml of culture media cells were counted using a coulter counter (Z2 Coulter Counter, Beckman Coulter) and sub-cultivated to 10^5 cells to generate growth curves. Growth curves were corrected for loss of cells at each sub-cultivation.

[4] = Dissolution of drug in 10% (wt/vol) sucrose solution; assay type: physicochemical; settings: 0.5 mM in 10% (wt/vol) sucrose solution
Experimental: Compound 1 (3′-N-(4-hydroxy-3-iodobenzyl)-13-(R/S)-dihydrodaunorubicin, stereoisomeric mixture) and Compound 2 (3′-N-(4-Hydroxy-3-iodobenzyl)daunorubicin), structures are shown below, or doxorubicin (Sigma Aldrich, St. Louis, Mo., USA) were encapsulated into liposomes using the pH-gradient driven loading protocol by Mayer et al. The pH gradient across the liposome membrane was generated by exchanging the extravesicular 300 mM citrate buffer (pH 4) with 20 mM N-[2-hydroxyethyl]piperazine-N′-[2-ethanesulfonic acid] (HEPES) buffered 150 mM saline (HBS) (pH 7.5) on a Sephadex G-50 column. Doxorubicin was dissolved in HBS at a concentration of 1 mM. Compound 1 was dissolved at a concentration of 0.5 mM in 10% (wt/vol) sucrose solution. […] A preheated drug solution was added to the liposomes at a 0.2 drug-to-lipid molar ratio. The mixture was incubated for 15 min at a temperature of 60° C. with intermittent mixing using a Vortex-apparatus resulting in 100% drug encapsulation.

calf thymus DNA (CT DNA) [5] = settings: literature values; cited from earlier work
[6] = cited from earlier work
[7] = system: thyroid cancer, lymphomas, bladder carcinomas, sarcomas, ovarian carcinomas, leukemias; settings: cited from earlier work

SMILES | localisation in cells by fluorescence microscopy [1] | drug remaining encapsulated in liposomes [2] | n (exclusion parameter) (calf thymus DNA (CT DNA) [3]) [base pairs] | cytotoxic effect (growth curves) (SKBR-3 cells) | dissolution of drug [4] | n (exclusion parameter), literature value (calf thymus DNA (CT DNA) [5]) [base pairs] | cardiac toxicity up to congestive heart failure, share of patients ([6]; patients) | side effect alopecia, share of patients ([6]; patients) [%] | side effect nausea and vomiting, share of patients ([6]; patients) | acute dose-limiting toxicity: bone-marrow suppression, leukopenia, and stomatitis, share of treated patients ([6]; treated patients) [%] | overall response rate ([7]; bladder carcinomas) [%] | overall response rate ([7]; leukemias) [%] | overall response rate ([7]; lymphomas) [%] | overall response rate ([7]; ovarian carcinomas) [%] | overall response rate ([7]; sarcomas) [%] | overall response rate ([7]; thyroid cancer) [%]
COc1cccc2c1C(=O)c1c(O)c3c(c(O)c1C2=O)C[C@@](O)(C(C)O)C[C@@H]3O[C@H]1C[C@@H](NCc2ccc(O)c(I)c2)[C@H](O)C(C)O1 (mixture of isomers) [Compound 1, 3′-N-(4-hydroxy-3-iodobenzyl)-13-(R/S)-dihydrodaunorubicin] | bound to the cell nucleus and not located inside the cytoplasm | more than 90% | 3.4 | Neither of the latter compounds had any significant cytotoxic effect |  |  |  |  |  |  |  |  |  |  |  | 
COc1cccc2c1C(=O)c1c(O)c3c(c(O)c1C2=O)C[C@@](O)(C(C)=O)C[C@@H]3O[C@H]1C[C@@H](NCc2ccc(O)c(I)c2)[C@H](O)C(C)O1 (some centres unmarked) [Compound 2, 3′-N-(4-Hydroxy-3-iodobenzyl)daunorubicin] |  |  | 3.7 |  | did not dissolve completely |  |  |  |  |  |  |  |  |  |  | 
COc1cccc2c1C(=O)c1c(O)c3c(c(O)c1C2=O)C[C@@](O)(C(C)=O)C[C@@H]3O[C@H]1C[C@H](N)[C@H](O)[C@H](C)O1 [daunorubicin, Daunorubicin] |  |  | 3.6 | Neither of the latter compounds had any significant cytotoxic effect |  | 3.5 |  |  |  |  |  |  |  |  |  | 
COc1cccc2c1C(=O)c1c(O)c3c(c(O)c1C2=O)C[C@@](O)(C(=O)CO)C[C@@H]3O[C@H]1C[C@H](N)[C@H](O)[C@H](C)O1 [doxorubicin, Doxorubicin] |  | Approximately 80% | 3.9 | Neither of the latter compounds had any significant cytotoxic effect |  | 3.8 | 1-10% | 100 | 20-55% | 80 | 33 | 24 | 41 | 25 | 26 | 45
